This is an account of results in patent publication US20250255958A1, “VIRUS-FREE CRISPR CAR NATURAL KILLER CELLS” (Wisconsin Alumni Research Foundation, priority 2024, published 2025).

Data set [1] has as its target T1, DNA-dependent protein kinase (DNA-PK) (Homo sapiens, UniProt P78527).
T1 construct: NK cells were nucleofected on day 4 with the RNP complex and dsDNA, and incubated with M3814 at various concentrations; endogenous in cells; host or cells: primary peripheral-blood NK cells
In kind it is cell-based. The procedure:
Nucleofection: NK-cells were nucleofected on day 4, unless otherwise described for optimization experiments. Post-nucleofection recovery medium (Complete NK MACS® medium (Miltenyi) with 100 IU/mL IL-2 (Peprotech) and 2 ng/mL IL-15 (Peprotech)+/−0.6 uM M3814 (Selleck Chem)) was prepared, with M3814 added at 1.2× the working concentration to account for future dilution. For M3814 related optimization experiments, multiple aliquots of post-recovery medium were prepared with a corresponding concentration of M3814. 150 μL of M3814 recovery medium was plated into individual wells of a 96-well round bottom plate for each replicate and set aside in the incubator. PB-NK cells were harvested and counted using the Countess® II FL Automated Cell Counter (Thermo Fisher Scientific) with 0.4% Trypan Blue viability stain (Thermo Fisher Scientific). 5e5 cells were aliquoted into individual 1.5 mL Eppendorf Tubes® for each nucleofection replicate. While the RNP complexes incubated, the cells were pelleted at 100 g for 10 minutes, and 3 μg (1.5 μL) of dsDNA templates were aliquoted into PCR tubes for each replicate. Following incubation, the RNP complexes were added to the dsDNA templates and were allowed to incubate for 3-5 minutes at room temperature. Cell pellets were resuspended in P3 buffer with 22% supplement (Lonza), and combined with the RNP+dsDNA mixture, for a total volume of […]. Samples were added to the 24 μL reaction cuvettes (Lonza) and were nucleofected using the EH-100 program (Lonza Amaxa™ 4D-Nucleofector®), unless specified otherwise for optimization experiments. Immediately after nucleofection, 100 μL of pre-warmed recovery medium (no M3814) was added to each of the cuvette wells, and samples were rested at 37° C. for 15 minutes. Finally, samples were transferred from the cuvette to the 96-well plate containing pre-warmed recovery medium with M3814. After 24 hours, nucleofected NK cells were combined with irradiated K562-mb15-41BBL (100 Gy) at a 1:2 ratio in complete NK MACS medium with 100 IU/mL IL-2 and 2 ng/mL IL-15.
NK cells were nucleofected on day 4 with the RNP complex and dsDNA, and incubated with M3814 at various concentrations. Nucleofected cells were expanded for one week and assayed by flow cytometry for NKG2A knock-out and transgene expression.

A further data set relates to KLRC1 gene. Briefly: Indel formation by NGS after Cas9 RNP nucleofection of NK-92 cells. The settings on record: SpCas9 RNP, NGS after two weeks of culture, exon 3. It is filed as cell-based, human. The procedure: On-target editing analysis via Next Generation Sequencing: Genomic DNA was extracted and indel formation was analyzed via next generation sequencing (Illumina) as previously described in the art. Briefly, edited amplicons were amplified and purified using genomic PCR and SPRI cleanup, respectively. A second PCR was performed with indexing primers to attach unique dual identifiers (Illumina®) to the amplicons. After a second SPRI cleanup, samples were combined and run on the Illumina® MiniSeq™ per the manufacturer's instructions and analyzed using the CRISPR RGEN software.
The editing strategy to improve NK potency against solid tumors involves knocking out the NKG2A receptor that can inhibit cytotoxicity within solid tumors (FIG. 1A), while simultaneously conferring specificity of cytotoxicity to a target antigen on the cancer. To knock out the NKG2A receptor, three single-guide RNAs (sgRNAs) were designed against several common coding exons in the KLRC1 gene (FIG. 1B). Ribonucleoproteins (RNPs) were generated upon the complexation of these sgRNAs with SpCas9 to generate double-stranded DNA breaks at these targets within KLRC1. NK-92 cells, a human cell line derived from non-hodgkin lymphoma, were nucleofected with RNPs containing one of these sgRNAs, and assessed for insertions or deletions (indels) around the targeted site after two weeks of cell culture. […]

A further data set relates to KLRC1. The settings on record: primary T cells, Bexte et al.; cited from earlier work.
The next data set relates to NKG2A. The settings on record: Huang et al.; cited from earlier work.
Another data set has as its system human genome. Briefly: Genome-wide off-target analysis by CHANGE-seq. It is filed as biochemical. The procedure:
Off-target analysis via genome wide CHANGE-seq: The Gentra® Puregene® kit (Qiagen, Germantown, MD) was used to extract genomic DNA from unedited primary NK cells per the manufacturer's instructions. Genomic analysis was performed by CHANGE-Seq as described previously in the art. In short, genomic DNA underwent tagmentation with a custom Tn5-transposome, and was gap repaired with HiFi HotStart Uracil+ Ready Mix (Kapa Biosystems, Wilmington, MA). USER enzyme (NEB, Ipswich, MA) and T4 polynucleotide was then used to treat the gap-repaired DNA. DNA circularization was performed using T4 DNA ligase (NEB, Ipswich, MA), followed by treatment with a mixture of exonucleases to remove residual linear DNA. In vitro cleavage reactions were performed on the circularized DNA using SpCas9 protein (NEB, Ipswich, MA) and KLRC1 sgRNA. Cleaved products were incubated with proteinase K (NEB, Ipswich, MA), A-tailed, ligated with a hairpin adapter (NEB, Ipswich, MA), and treated with USER enzyme (NEB, Ipswich, MA). Products were amplified by PCR with the Kapa HiFi polymerase (Kapa Biosystems, Wilmington, MA), and libraries were quantified by qPCR (Kapa Biosystems, Wilmington, MA). Libraries were sequenced with 150 bp paired-end reads on the Illumina NextSeq2000 instrument. CHANGE-seq data analyses were performed as described previously.

Where “and” joins values, the source holds several entries; their conditions need not be identical. Equal entries are not always repeated.

In the case of `COc1ccc([C@@H](O)c2cc(-c3ncnc4cc(N5CCOCC5)ccc34)c(F)cc2Cl)nn1` [M3814], in data set [1], the “cell expansion after nucleofection” value was “did not affect cell expansion”; the “improvement of HDR outcomes” value is “two-fold”; the “percent of NKG2A− cells” value is reported as “around 75%”; the “percentage of transgene expression” value was 11.9% and 12.8%.
With “GGTCTGAGTAGATTACTCCT(TGG) (guide GGUCUGAGUAGAUUACUCCU; listed as RNA, chemistry not given here) [gRNA1]”, the indel formation in the data set with KLRC1 gene stood at 98%. In addition, the indel frequency with KLRC1 is 58-80%. Also, in the data set with NKG2A, the NKG2A knock-out entry was “less than 25%” and the indel frequencies is listed as over 80%. For the same molecule, in the data set on human genome (CHANGE-seq), the “sites having off-target activity near a transcription start site (TSS)” value was found to be 8 and the “sites having off-target nuclease activity within exons” value turned out to be 10. Besides, the CHANGE-seq specificity ratio in the data set with human genome (on-target reads divided by sum of total reads) is on record as 0.038.
